The source of these data is patent US20010056582A1, “PAIRED MUTATIONS” (priority 1997, published 2001).

Data set [1] has as its system post-cell stages of spermatogenesis (male germ cells). The conditions noted are these: cited from earlier work; for Lethal/tested mutations: number of lethal mutations among those tested, for chlorambucil includes mutations with evidence for deletion.
The next data set deals with mice. The conditions noted are these: cited from earlier work; for mutation frequency compared with ENU: other chemical mutagens versus ENU (approximately 1 per 1000 mice).
The subject of the next data set is zebrafish. As to conditions: ENU mutagenesis; cited from earlier work.
Another data set relates to male mice. The experiment in a line: Sterility of male mice after ENU treatment. Format: in vivo. The procedure:
Mutations in the DNA of the premeiotic spermatogonia of male mice can be induced with the DNA alkylating agent ethylnitrosourea (ENU). Typically, 3 separate doses of 100 mg/kg body weight ENU are injected interperitoneally, with each injection separated by a one week interval. The animals undergo a period of sterility (usually 8-14 weeks), after which they can be mated to nonmutagenized females to produce offspring (the F1 generation) which carry heterozygous mutations in their genome (FIG. 1).
Each animal carries the same set of heterozygous mutations throughout both somatic and germ tissue. To generate large numbers of offspring for a paired sample set, 300 males are treated with ENU. Approximately 100 of these mice will be permanently sterile; the remaining 200 are permanently mated with 2 females each. […] In this way a set of paired samples comprised of over 30,000 animals can be produced within a year, including the time required to establish the ENU treated breeding males. The process can be scaled up by ENU treatment and breeding of additional male mice.

Setting [2] is: experimental minus historical control 43/801,406, for period of maximum response, at the listed exposure.
Where [3] appears, read: rate relative to exposure in mol per kg body weight.

Counter-ions that a name gives are not always drawn. Like-named read-outs stand apart in the source and are kept apart here.

Consider `C=CC(N)=O` [AA, acrylamide monomer], for which, in data set [1] (mouse, in vivo), the “Induced mutation rate per locus” value is 18.2 × 10^−5 and the “Induced mutation rate per locus per mol” value is 0.1 per mol.
As to `O=C(O)CCCc1ccc(N(CCCl)CCCl)cc1` [Chl, chlorambucil], the “Induced mutation rate per locus” value in data set [1] (setting [2]) is given as 127.3 × 10^−5. The Lethal/tested mutations in data set [1] was 1/4. Moreover, the “Induced mutation rate per locus per mol” value in data set [1] (setting [3]) is on record as 38.7 per mol.
For the molecule `O=P1(N(CCCl)CCCl)NCCCO1` (stereo not drawn) [Cp, cyclophosphamide], in data set [1] (setting [2]), the “Induced mutation rate per locus” value was 24.3 × 10^−5. In data set [1], the Lethal/tested mutations is 3/5. Further, the “Induced mutation rate per locus per mol” value in data set [1] (setting [3]) was 0.5 per mol.
`CCN(N=O)C(N)=O` [ENU, N-ethyl-N-nitrosourea]: the “frequency of mutations, determined for numerous genes” value with mice (for any given gene screened, phenotype-based) is recorded as 0.5-1.5 mutant mice per 1000 mice. Further, in the data set on mice (offspring of ENU mutagenized male mice, based on phenotypic assays), the “frequency of a mutation in any given gene” value was “approximately 1 per 1000 mice”. In addition, in the data set with zebrafish, the locus-specific mutation frequency is on record as 1/1000. Also, the “Induced mutation rate per locus” value in data set [1] (setting [2]) is reported as 10.6 × 10^−5. In data set [1], the Lethal/tested mutations is 0/5. The “Induced mutation rate per locus per mol” value in data set [1] (setting [3]) is listed as 0.2 per mol. Besides, the period of sterility in the data set with male mice (male mice, 3 doses of 100 mg/kg ENU interperitoneally at one week intervals) is listed as 8-14 weeks. In addition, the mice permanently sterile result in the data set on male mice (of 300 males treated with ENU) is recorded as “Approximately 100 mice”.
Regarding `CCOS(=O)(=O)OCC` [Et2SO4, diethyl sulfate], in data set [1] (mouse, in vivo), the “Induced mutation rate per locus” value is reported as 11.2 × 10^−5 and the “Induced mutation rate per locus per mol” value is given as 0.1 per mol. The Lethal/tested mutations in data set [1] was 4/4.
As for `CCOS(C)(=O)=O` [EtMs, ethyl methanesulforate], in data set [1] (setting [2]), the “Induced mutation rate per locus” value was 20.9 × 10^−5. Moreover, in data set [1], the Lethal/tested mutations is given as 0/1. Further, the “Induced mutation rate per locus per mol” value in data set [1] (setting [3]) is 0.1 per mol.
As to `CN(N=O)C(N)=O` [MNU, N-methyl N-nitrosourea], the “mutation frequency compared with ENU” value in the data set on mice was “same type of mutation frequency”. Moreover, in data set [1] (setting [2]), the “Induced mutation rate per locus” value was 90.2 × 10^−5. Moreover, the Lethal/tested mutations in data set [1] was 0/17. Moreover, the “Induced mutation rate per locus per mol” value in data set [1] (setting [3]) is on record as 1.2 per mol.
For `COS(C)(=O)=O` [MeMs, methyl methanesulforate], in the data set on mice, the “mutation frequency compared with ENU” value is on record as “same type of mutation frequency”. In addition, the “Induced mutation rate per locus” value in data set [1] (setting [2]) is recorded as 24.0 × 10^−5. Further, the Lethal/tested mutations in data set [1] is 10/14. The “Induced mutation rate per locus per mol” value in data set [1] (setting [3]) was 0.7 per mol.
As for `CNNCc1ccc(C(=O)NC(C)C)cc1.Cl` [Pre, phocarbazine hydrochloride], in the data set with mice, the “mutation frequency compared with ENU” value was “same type of mutation frequency”. Further, the “Induced mutation rate per locus” value in data set [1] (setting [2]) is reported as 21.6 × 10^−5. In addition, in data set [1] (setting [3]), the “Induced mutation rate per locus per mol” value is given as 0.1 per mol.
